Measurements from patent EP4671240A1, “SALT CONTAINING AROMATIC RING DERIVATIVE ANTAGONIST, PREPARATION METHOD THEREFOR, AND APPLICATION THEREOF” (Jiangsu Hansoh Pharmaceutical Group Co., Ltd., priority 2023, dated 2024).

Legend:
[1] = Rat pharmacokinetic evaluation assay (oral); type: in vivo; settings: male, SD rats, p.o. 5 mg/kg, plasma; for MRT inf: read-out: MRT 0-∞
Method: 6. Experimental conclusion: It can be seen from the data in the table that the example compounds shown in the present invention show good antagonistic effects in the experiment of the effect on calcium current in cells stably expressing ETA receptors. 2. Rat pharmacokinetic evaluation assay 1. Study objective: SD rats were used as test animals to study the pharmacokinetic behaviour of the compounds of the present invention in rat (plasma) after oral administration at a dose of 5 mg/kg. 2. Experimental scheme: • 2.1 Experimental drugs: The example compounds of the present invention, made in house. • 2.2 Experimental animals: 3 SD rats/group, male, from Shanghai Jiesijie Experimental Animal Co., Ltd., animal production license number (SCXK (Shanghai) 2013-0006 N0.311620400001794). 2.3 Preparation formulation: 0.5% CMC-Na (1% Tween80) was dissolved by ultrasonication, and formulated into a clear solution or homogeneous suspension. 2.4 Administration: • p.o. respectively after the rats were fasted overnight; • the p.o. dose was 5 mg/kg and the administration volume was 10 mL/kg. 2.5 Sample collection: After oral administration of rats, 0.2 mL of blood was collected from the jugular vein at 0.25 h, 0.5 h, 1.0 h, 2.0 h, and 4.0 h, placed in an EDTA-2K test tube, and centrifuged at 6000 rpm for 6 min at 4°C to separate plasma which was stored at - 80°C; the animals were fed 4 h after administration. 2.6 Sample treatment: • 1) Acetonitrile (160 µL) was added to plasma sample (40 µL) for precipitation, and the mixture was centrifuged at 3500 × g for 5-20 min. • 2) The treated supernatant solution was taken and subjected to LC/MS/MS to analyse the concentrations of the test compound. LC/MS/MS analysis instrument: AB Sciex API 4000 Qtrap. 2.7 Liquid phase analysis: • Liquid phase conditions: Shimadzu LC-20AD pump • Chromatographic column: Agilent ZORBAX XDB-C18 (50×2.1 mm, 3.5 µm), mobile phase: liquid A: 0.1% formic acid in water, liquid B: acetonitrile • Flow rate: 0.4 mL/min • Elution time: 0-4.0 min, the eluent was as follows:
The main pharmacokinetic parameters were calculated using WinNonlin 6.1. The results of pharmacokinetic experiments in rats are as shown in Table 13 below: Table 13: Pharmacokinetic parameters of the compounds of the present invention in rats after oral administration

[2] = Liver microsomal metabolism stability assay (rat); type: in vitro ADME; settings: compound 1 µM; for half-life at 1 µM: rat liver microsomes 0.5 mg/mL, NADPH/UDPGA, read-out: Rat t1/2; for Rat Remaining rate: rat liver microsomes, 60 min
Method: The objective of this experiment was to detect the stability of the example compounds in liver microsomes of rats, dogs and humans.
Formulation of compound working solution: compound stock solution was added to phosphate buffer to a final concentration of 20 µM.
Dilution was performed with 100 mM phosphate buffer to a final concentration of 0.625 mg/mL.
NADPH (reduced nicotinamide adenine dinucleotide phosphate) and UDPGA (uridine diphosphate glucuronic acid) were weighed, and 100 mM phosphate buffer was added to a final concentration of 20 mM.
1 mg of Alamethicin was weighed, and 200 µL of DMSO was added to formulate a 5 mg/mL solution. Then dilution was performed with phosphate buffer to a final concentration of 50 µg/mL.
Stop solution: cold acetonitrile containing 100 ng/mL labetalol hydrochloride and 400 ng/mL tolbutamide as internal standards.
400 µL of formulated liver microsomes, 25 µL of compound working solution and 25 µL of Alamethicin were added in sequence to a 96-well plate, and the mixture was pre-incubated at 37°C for 10 min. Then 50 µL of formulated NADPH/UDPGA was added to start the reaction and the mixture was incubated at 37°C. The total volume of the reaction system was 500 µL. The final contents of each component are as follows:
• Instrument: Shimadzu LC-30 AD; • Chromatographic column: XBridge® C18 (50*4.6 mm, 5 µm particle size); • Mobile phase: A: 0.1% formic acid solution, B: methanol • Elution gradient: 0.2-1.6 min 5% A to 95% A, 3.0-3.1 min 95% A to 5% A • Run time: 4.0 min.
• Instrument: API5500 liquid chromatography-mass spectrometer, AB Sciex; • Ion source: electrospray ionization source (ESI); • Drying gas: N2, temperature 500°C; • Electrospray voltage: 5000 V; • Detection mode: positive ion detection; • Scan mode: Multiple Reaction Monitoring (MRM) mode.

Structure (SMILES) | AUC(0-inf) [1] [ng·h/mL] | Cmax [1] [ng/mL] | Tmax [1] [min] | MRT inf [1] [min] | half-life at 1 µM [2] [min] | Rat Remaining rate [2] [%]
[2H]C([2H])(c1ccc(-c2ccccc2S(=O)(=O)Nc2noc(C)c2Cl)c(COCC)c1)N1C(=O)C2(CCCC2)N=C1CCCC [Example 2, 4'-((2-Butyl-4-oxo-1,3-diazaspiro[4.4]non-1-en-3-yl)methyl-d2)-N-(4-chloro-5-methylisoxazol-3-yl)-2'-(ethoxymethyl)-[1,1'-biphenyl]-2-sulfonamide] | 10200 | 1690 | 30 | 504 | 26.3 | 29.4
CCCCC1=NC2(CCCC2)C(=O)N1Cc1ccc(-c2ccccc2S(=O)(=O)Nc2noc(C)c2Cl)c(COCC)c1 [Example 8, 2-[4-[(2-Butyl-4-oxo-1,3-diazaspiro[4.4]non-1-en-3-yl)methyl]-2-(ethoxymethyl)phenyl]-N-(4-chloro-5-methyl-isoxazol-3-yl)benzenesulfonamide] | 16000 | 2140 | 30 | 516 | 29.9 | 23.3
